Assay results: US20250376441A1, “NOVEL COMPOUND AND PHARMACEUTICAL COMPOSITION COMPRISING SAME AS ACTIVE INGREDIENT” (Industry-Academic Cooperation Foundation, Yonsei University, priority 2017, published 2025)

How the values were obtained:
[1] = molecular target: AMP-activated protein kinase (AMPK); assay: AMPK kinase assay (luminescence, purified enzyme, ATP, substrate peptide); format: biochemical; settings: AMPK activation
Protocol: In order to identify an effect of the Preparation Example 6 having the highest docking score in Experimental Example 1 on activity of the AMP-activated protein kinase (AMPK), a kinase assay was performed. The kinase assay was performed as follows. […] Then, purified AMP-activated protein kinase and ATP were allowed to react on a substrate peptide for the AMP-activated protein kinase, and degrees of luminescence thereof were shown as EC50 in Table 3 and FIG. 3.

[2] = tested on: amyloid-beta peptide1-42 degenerative neurological disease-induced mice; assay: Morris water maze test; format: in vivo, ICR mice
Source text: Six-week-old ICR mice (male) were purchased, and then examined for general health for 6 days while subjecting them to quarantine and acclimation under an environment of animal breeding room. Then, healthy individuals were selected and used for the experiment. Identification of each individual was made by marking the number of each individual on the tail using a permanent marker, and identification of a breeding box was made by attaching an individual identification card on which test number, test substance name, test item, date of acquisition, acclimation period, date of grouping, test period, sex/animal number, and person in charge are indicated.
(§1) In order to induce a degenerative neurological disease, the experimental animals of Preparatory Example 1 were anesthetized by inhalation with 2.5% isoflurane. Then, 1 μg of amyloid-beta peptide1-42, a degenerative neurological disease-inducing substance, was administered to the animals at both hippocampal positions (AP: −2.3, L: ±2.0, H: −1.5) using a stereotaxic apparatus. […] For the administration, 1 μl was injected, at a flow rate of 0.2 μl/min, with a […] gas-tight glass syringe (Hamilton, Reno, NV, USA) using a perfusion pump (Pump 22, Harvard Apparatus, South Natick, MA, USA). Subsequently, the syringe was allowed to stand for 5 minutes and then removed.
(§2) Then, a degenerative neurological disease was induced as in Preparation Example 2.
After induction of the degenerative neurological disease, the following test was conducted after a one-day recovery period passed.
(§3) A circular pool (diameter: 120 cm, height: 75 cm) was filled with water to a depth of 25±1 cm as in FIG. 4, and a 24 cm platform was prepared by hiding it 1 cm below the water surface. Space cues were installed on the four sides of the wall so that the aminals can identify locations, and skimmed milk powder was dissolved into water so that the animals cannot identify the platform with naked eyes. One day before the experiment, all the experimental animals were allowed to swim freely for 1 minute in a water bath having no platform, so that the animals can adapt to the swimming situation. After that, a test group was allowed to start, in any order, from two of the three quadrants except the quadrant where the platform was placed, and allowed to find the platform for 60 seconds. In a case where an animal finds the platform, the animal was allowed to stay thereon for 20 seconds. […] As soon as end of the position learning time, which is the 20-second staying time, the animal was allowed to start again from any quadrant, and the time and distance to reach the platform were measured. The procedure was performed four times a day, and all procedures were taken with a camera and analyzed with a video tracking system (Panlab, USA). Probe trials were made on the fifth day after the four-day experiment in toal was completed. The test group was allowed to swim freely for 90 seconds without the platform, thereby performing evaluation on whether the test group holds a memory of the platform location. The results are illustrated in FIGS. 5 to 7.

[3] = tested on: amyloid-beta peptide1-42 degenerative neurological disease-induced mice; assay: Probe test (Morris water maze, platform removed); format: in vivo, ICR mice; settings: 90 seconds without platform
Protocol: as §1, §2, §3
The results are illustrated in FIGS. 8 and 9.

[4] = tested on: acetylcholine in brain tissues; assay: Acetylcholine content in brain tissue; format: in vivo, ICR mice
Protocol: Subsequently, the syringe was allowed to stand for 5 minutes and then removed.
Measurement of acetylcholine in brain tissues was performed based on response of o-acyl derivatives with alkaline hydroxylamine. Specifically, 50 μl of brain tissue was taken and 50 μl of 1% hydroxylamine (Sigma, USA) was added and mixed. […] Finally, 500 μl of FeCl3 (10% in 0.1 N HCl) was added to measure an acetylcholine level (umole/mg protein), and then the absorbance was measured at 530 nm.

[5] = tested on: Salmonella typhimurium TA98; assay: Ames reverse mutation test, TA98
Protocol: For each strain, treatment with a single concentration of 200 μg/plate was performed in triplicate and mutation was checked.

L929 = assay: Cytotoxicity test (Cyto X cell viability assay kit), L929; format: cell-based; settings: Mus musculus
Protocol: (§4) In order to identify whether the Preparation Example 6 according to the present invention is toxic to cells, a cytotoxicity test was conducted at the Korea Research Institute of Chemical Technology using the Cyto X™ cell viability assay kit ([…]).

NIH 3T3 = assay: Cytotoxicity test (Cyto X cell viability assay kit), NIH 3T3; format: cell-based; settings: Mus musculus, NIH3T3
Protocol: as §4

COc1ccc(OC)c(/C=C/C(=O)c2ccc(NS(=O)(=O)c3ccc(Cl)cc3)cc2)c1 [Preparation Example 6, (E)-4-Chloro-N-(4-(3-(2,5-dimethoxyphenyl)acryloyl)phenyl)benzenesulfonamide]
EC50 [1]: 0.637 µM | maximum platform escape latency ([2]; 1 mg): 136.45 (±26.02) seconds | minimum time to find the platform ([2]; 1 mg): 44.45 (±13.35) seconds | escape latency, fourth trial (short-term memory) ([2]; 1 mg, fourth day, p<0.05): 44.45 ± 13.35 s | escape latency, first trial (long-term memory) ([2]; 1 mg, fourth day, p<0.05 vs beta-amyloid group): 73.58 ± 9.14 s | maximum platform escape latency ([2]; 10 mg): 128.59 (±23.32) seconds | minimum time to find the platform ([2]; 10 mg): 40.64 (±10.94) seconds | escape latency, fourth trial (short-term memory) ([2]; 10 mg, first day, p<0.05): 76.14 ± 13.27 s | escape latency, fourth trial (short-term memory) ([2]; 10 mg, fourth day, p<0.05): 40.64 ± 10.94 s | escape latency, first trial (long-term memory) ([2]; 10 mg, fourth day, p<0.05 vs beta-amyloid group): 65.22 ± 13.65 s | escape latency, fourth trial (short-term memory) ([2]; 10 mg, second day, p<0.05): 59.87 ± 12.56 s | escape latency, first trial (long-term memory) ([2]; 10 mg, second day, p<0.05 vs beta-amyloid group): 95.05 ± 18.06 s | escape latency, fourth trial (short-term memory) ([2]; 10 mg, third day, p<0.05): 54.07 ± 14.38 s | escape latency, first trial (long-term memory) ([2]; 10 mg, third day, p<0.05 vs beta-amyloid group): 91.66 ± 12.68 s | maximum platform escape latency ([2]; 100 mg): 125.66 (±19.35) seconds | minimum time to find the platform ([2]; 100 mg): 36.48 (±9.54) seconds | escape latency, fourth trial (short-term memory) ([2]; 100 mg, first day, p<0.05): 73.79 ± 12.15 s | escape latency, fourth trial (short-term memory) ([2]; 100 mg, fourth day, p<0.01): 36.48 ± 9.54 s | escape latency, first trial (long-term memory) ([2]; 100 mg, fourth day, p<0.05 vs beta-amyloid group): 64.7 ± 12.63 s | escape latency, first trial (long-term memory) ([2]; 100 mg, second day, p<0.01 vs beta-amyloid group): 91.66 ± 12.68 s | escape latency, fourth trial (short-term memory) ([2]; 100 mg, second day, p<0.05): 59.62 ± 8.22 s | escape latency, fourth trial (short-term memory) ([2]; 100 mg, third day, p<0.01): 47.74 ± 10.81 s | escape latency, first trial (long-term memory) ([2]; 100 mg, third day, p<0.05 vs beta-amyloid group): 83.41 ± 11.46 s | swimming time in the target quadrant ([3]; 1 mg, p<0.05): 31.08 ± 6.33 s | swimming time in the target quadrant ([3]; 10 mg, p<0.01): 36.73 ± 7.78 s | swimming time in the target quadrant ([3]; 100 mg, p<0.01): 36.51 ± 6.55 s | acetylcholine content ([4]; 1 mg, p<0.05): 22.31±1.80 μmole/mg protein | acetylcholine content ([4]; 10 mg, p<0.01): 23.08±1.54 μmole/mg protein | acetylcholine content ([4]; 100 mg, p<0.01): 22.79±1.45 μmole/mg protein | Ames reverse mutation test outcome ([5]; TA98, 200 μg/plate, with or without S9): negative | Reverse mutation [factor] with S-9 mix ([5]; TA98, with S-9, factor versus control): [1.5] | Reverse mutation/dish (mean ± SD) with S-9 mix ([5]; TA98, with S-9, Preparation Example 6 at 200 μg/plate, Benzo(a)pyrene concentration 2): 35 ± 2 | Reverse mutation [factor] w/o S-9 mix ([5]; TA98, without S-9, factor versus control): [1.1] | Reverse mutation/dish (mean ± SD) w/o S-9 mix ([5]; TA98, without S-9, Preparation Example 6 at 200 μg/plate, 2-Nitrofluorene concentration 2): 20 ± 4 | IC50 (L929): > 100 µM | IC50 (NIH 3T3): > 100 µM
